# Test results reported in US20220017833A1, “Methods and Compositions for Scavenging Sulfides from Hydrocarbon Fluids and Aqueous Streams” (Nexgen Oilfield Chemicals, LLC, priority 2019, published 2022).
# Columns and labels:
# [1] = Long Reaction Time Capacity Test; settings: 20 g test
# Excerpt: Referring now to FIG. 1, therein is schematically depicted a sulfide scavenger testing system 100 comprising a gas source 2, a flow regulator 4, gas treatment vessel 6, and a sulfide measurement device 8. In one testing embodiment, gas (not shown) is flowed from gas source 2 via gas feed piping 10 into flow regulator 4, which regulates gas flow to gas treatment vessel 6 via regulated gas feed piping 12. The regulated gas flows into gas treatment vessel 6 via a bottom inlet 14 thereof, where it comes into contact with a volume of liquid 16 comprising a sulfide scavenger system (not separately labeled). The gas, having been treated by the liquid, flows out of a top end 18 of gas treatment vessel 6 and flows into sulfide measurement device 8 via treated gas outlet piping 20.
# In one embodiment, the gas contained in gas source 2 consists substantially of about 15% H2S, and about 3% CO2, with the remainder being Methane. In one embodiment, gas flow from the flow regulator 4 is controlled such that the gas is flowed into the gas treatment vessel 6 at a flow rate of 100 mL/min. up to 500 mL/min. In one embodiment, a gas sparging device, such as a fine pore frit (not shown), is utilized to better distribute the gas into the scavenger liquid. In one embodiment, the gas treatment vessel 6 contains about 20 g of a liquid H2S scavenger, such as one or more diaminols/diaminacetals in a chemical system as described above. In one aspect, to the extent possible, H2S and/or CO2 are scavenged from the gas by the scavenger and the treated (“sweet”) gas exits top end 18 of treatment vessel 6. In one embodiment, sulfide measurement device 8 monitors the concentration of H2S leaving treatment vessel 6. in the gas phase. In other embodiments (not shown), a CO2 measurement device may be similarly employed to monitor the concentration of CO2 leaving treatment vessel 6 in the gas phase.
# In one embodiment, gas is flowed through sulfide scavenger testing system 100 until the outlet H2S concentration reaches a 4,000 ppm target, at which point the test is concluded. This relative time duration before the target is reached is used to compare H2S scavenger capacity given the kinetics of each sulfide scavenger system. The longer the duration, the better the capacity.
# In this test, methane containing 15% H2S and 3% CO2 by weight is sparged via a fine pore frit (not shown) at 100 mL/min through a column of 20 g of scavenger solution (See FIG. 1). The fine bubbles produced rise slowly, providing plenty of time, plenty of surface area, and a short path through which the H2S must diffuse to the scavenger in the liquid 16. Detector 8 on the outlet line 20 is used to measure H2S concentration in the exiting gas. The times to first detection (FD), at a threshold of 15 ppm, and to complete breakthrough (BT), at the detector saturation of 4000 ppm (0.4%), are recorded. This test is designed to measure the effective scavenging capacity in applications with long contact times.
# Note that the true total capacity of a scavenger with infinite time to react is simply equal to the stoichiometry of the reaction—the moles of H2S consumable per mole of scavenging molecule, which can be calculated. This Long Reaction Time Capacity measurement falls short of that ultimate stoichiometric capacity and so is still reaction rate dependent, just less so than the Short Reaction Time Capacity Test.
# [2] = operational testing in a natural gas production facility
# Method: In operational testing in a natural gas production facility, both an anhydrous glyoxy isopropyl aminacetal (GIDAc) scavenging system and an aqueous glyoxy isopropyl diaminol (GIDA) scavenging system were tested in comparison with an industry standard triazine-based scavenger.
# [3] = Storage Capacity Loss Test; assay type: physicochemical; settings: for Min to BT / Min to FD: Short Reaction Time Capacity Test, diaminol in water + 10.00 g MeOH, 20 g test
# Method: This test compares the scavenging capacity after 24 hours of storage of the scavenger system at room temperature to that after 72 hours of storage thereof at room temperature. In one embodiment, a sample of the scavenger system is made fresh and split in two portions. The Short Reaction Time Capacity Test is run on one portion after standing 24 hours on the bench at room temperature. Then the same test is run on the other portion after standing 72 hours on the bench at room temperature. The two measured capacities are compared to see if the product degrades in storage. Importantly, some scavengers lose activity with time due to secondary reactions and re-equilibrations that degrade their active form.
# Table 5 compares different alkyl substituents on glyoxy alkyl diaminols. These compounds were prepared by reacting one mole of glyoxal, as a 40% aqueous solution, with 2.1 moles of various primary amines in a sufficient amount of MeOH to keep the product from separating into an aqueous layer and a non-aqueous layer. For each amine substituent: methyl (Me), ethyl (Et), normal-propyl (n-Pr), iso-propyl (i-Pr), and iso-propanol [1-propan-2-ol] (i-PrOH), the presence or absence of alpha branching on that substituent is noted. The weight ratios of the diaminols, water, and MeOH, are listed, along with their equivalent weights (Eq. Wt.) and the total equivalents per 20 g test (Eq/test). To measure the product stability, the Storage Capacity Loss between 24 and 72 hours was determined. As described earlier, a fresh sample of the scavenger system is split in two portions. The Short Reaction Time Capacity Test is run on one portion after standing 24 hours on the bench at room temperature. Then the same test is run on the other portion after standing 72 hours on the bench at room temperature. Both the 24-hr and 72-hr capacities (Min to FD and BT) and molar capacities (Min/Eq FD and BT) are listed in the table with the percent capacity loss for each substituent calculated below it. […] The others lost 34% to 77% of their scavenging capacity in 48 hours (72-24), presumably due to secondary reactions and re-equilibrations that degraded their active form. In this system employing only methanol, all of these compositions failed both the Hot Spray Fouling Test and the Spent Water Flowability Test. Two of them, the iso-propylamine [propan-2-amine] and the iso-propanolamine [1-aminopropan-2-ol] passed the Spent Solids Fouling Test.
# [4] = Solution Homogeneity Test; assay type: physicochemical; settings: Table 5; glyoxy alkyl diaminol in water and MeOH only
# Excerpt: In one aspect, as two-phase reaction products are problematic, scavenger system homogeneity is desired. The two phases could be emulsified or otherwise finely dispersed, but in practice, even fine, seemingly stable dispersions eventually separate or stratify in extended storage or critical use and are not robust enough for practical use. They are not allowed, for example, to be fed through capillaries for fear of plugging them. In this pass/fail test, a sample is held up for visual inspection in a backlit clear vial. A clear, single-phase, homogeneous solution is a pass. Anything else is a fail.
# [5] = Eq/test Triazine 0.068, GIDAc 0.185, GIDA 0.076
# [6] = Triazine 7.50 g + 12.50 g water, GIDAc 13.00 g as GID + 7.00 g MeOH, GIDA 6.68 g as GID, 3.32 g water, 8.00 g MeOH, 2.00 g BuOH
# [7] = 72-24 Hrs storage at room temperature
# [8] = Sample Age 24 Hrs at room temperature
# [9] = Sample Age 72 Hrs at room temperature
compound,measurement,setting,value
"CC(C)NC(O)C(O)NC(C)C (stereo not drawn) [GIDA, 1,2-bis[(propan-2-yl)amino]ethane-1,2-diol]",Min/Eq BT,[1]; [5],805 Min/Eq
same,Min/Eq FD,[1]; [5],607 Min/Eq
same,Min to BT,[1]; [6],61 min
same,Min to FD,[1]; [6],46 min
same,H2S removal on a pound-per-pound basis,[2]; compared with the triazine-based scavenging system,significantly higher H2S removal
same,employable in scavenging H2S from natural gas,[2]; natural gas production facility,employable
same,BT Capacity Loss,[3]; [7],−2%
same,FD Capacity Loss,[3]; [7],0%
same,Min/Eq BT,[3]; Sample Age 24 Hrs,528 Min/Eq
same,Min/Eq FD,[3]; Sample Age 24 Hrs,409 Min/Eq
same,Min to BT,[3]; [8],40 min
same,Min to FD,[3]; [8],31 min
same,Min/Eq BT,[3]; Sample Age 72 Hrs,541 Min/Eq
same,Min/Eq FD,[3]; Sample Age 72 Hrs,409 Min/Eq
same,Min to BT,[3]; [9],41 min
same,Min to FD,[3]; [9],31 min
same,loss of scavenging capacity (degradation) in storage,"[3]; in 48 hours (72-24), room temperature",no degradation
same,Solution Homogeneity,[4],Pass
